Read-outs that look alike come from different tables or passages of the source.
Legend:
[1] = tested on: MSI-H colorectal cancer SW48 cell line; test: 2D anti-proliferative activity, MSI-H SW48 cells (CTG, 5 days); assay type: cell-based; conditions: for inhibition at 38.15 pM: 0.038146973 nM; for inhibition at 0.000152588 µM: 0.152587891 nM; for inhibition at 0.000610352 µM: 0.610351563 nM; for inhibition at 0.00244141 µM: 2.44140625 nM; for inhibition at 0.00976562 µM: 9.765625 nM; for inhibition at 0.0390625 µM: 39.0625 nM; for inhibition at 0.15625 µM: 156.25 nM; for inhibition at 0.625 µM: 625 nM; for inhibition at […]: 2500 nM; for inhibition at 10 µM: 10000 nM; for IC50: 5 days
Method: The molecules of the present disclosure were tested for their anti-proliferative activity against MSI-H tumor cells.
The proliferation of tumor cells with microsatellite instability MSI-H is sensitive to WRN inhibitors, while the proliferation of microsatellite stable (MSS) tumor cells is insensitive to WRN inhibitors. By testing the activities of the two, it is shown that the molecules of the present disclosure have an inhibitory and synthetic lethal effect on WRN at the cellular level.
(§1) The MSI-unstable SW48 colorectal cancer cells were cultured in RPMI 1640 medium containing 10% FBS and 1% penicillin-streptomycin in a 37° C., 5% CO2 constant temperature incubator. A 40 μL cell suspension was added to each well of a 384-well microplate. Using Echo, 40 nL of compounds at different concentrations was dispensed into each well, followed by incubation in a 37° C., 5% CO2 constant temperature incubator for 5 days. Then, 40 μL of CTG solution (Promega, Cat No. G7573) was added to each well, and the plate was incubated in the dark in a 37° C., 5% CO2 constant temperature incubator for 30 minutes. Luminescence was measured using an Envision multi-function microplate reader (Perkin Elmer, Model: Envision 2104). The luminescent signal was proportional to the amount of ATP in the system, and the amount of ATP directly represented the number of living cells in the system.

[2] = Pharmacokinetic evaluation in mice; assay type: in vivo, CD1 female mice; conditions: for F: PO 10 mg/kg vs IV 2 mg/kg; for AUC(0-t): read-out: AUC0-24
Method: CD1 female mice were used as test animals and the drug was administered orally/intravenously (oral dosage: 10 mg/kg, intravenous dosage: 2 mg/kg).
Assay protocol: The oral group consisted of 3 mice per group (vehicle: 10% Hβ-CD-pH7.4), and the intravenous group consisted of 3 mice per group. […] The blood concentrations in plasma after oral and intravenous administration of mice were determined by LC/MS/MS, respectively.

WRN helicase = WRN helicase (Homo sapiens, UniProt Q14191); test: WRN helicase hydrolysis/unwinding of double-stranded DNA (fluorescence); assay type: biochemical
WRN helicase, sequence (Q14191 whole entry): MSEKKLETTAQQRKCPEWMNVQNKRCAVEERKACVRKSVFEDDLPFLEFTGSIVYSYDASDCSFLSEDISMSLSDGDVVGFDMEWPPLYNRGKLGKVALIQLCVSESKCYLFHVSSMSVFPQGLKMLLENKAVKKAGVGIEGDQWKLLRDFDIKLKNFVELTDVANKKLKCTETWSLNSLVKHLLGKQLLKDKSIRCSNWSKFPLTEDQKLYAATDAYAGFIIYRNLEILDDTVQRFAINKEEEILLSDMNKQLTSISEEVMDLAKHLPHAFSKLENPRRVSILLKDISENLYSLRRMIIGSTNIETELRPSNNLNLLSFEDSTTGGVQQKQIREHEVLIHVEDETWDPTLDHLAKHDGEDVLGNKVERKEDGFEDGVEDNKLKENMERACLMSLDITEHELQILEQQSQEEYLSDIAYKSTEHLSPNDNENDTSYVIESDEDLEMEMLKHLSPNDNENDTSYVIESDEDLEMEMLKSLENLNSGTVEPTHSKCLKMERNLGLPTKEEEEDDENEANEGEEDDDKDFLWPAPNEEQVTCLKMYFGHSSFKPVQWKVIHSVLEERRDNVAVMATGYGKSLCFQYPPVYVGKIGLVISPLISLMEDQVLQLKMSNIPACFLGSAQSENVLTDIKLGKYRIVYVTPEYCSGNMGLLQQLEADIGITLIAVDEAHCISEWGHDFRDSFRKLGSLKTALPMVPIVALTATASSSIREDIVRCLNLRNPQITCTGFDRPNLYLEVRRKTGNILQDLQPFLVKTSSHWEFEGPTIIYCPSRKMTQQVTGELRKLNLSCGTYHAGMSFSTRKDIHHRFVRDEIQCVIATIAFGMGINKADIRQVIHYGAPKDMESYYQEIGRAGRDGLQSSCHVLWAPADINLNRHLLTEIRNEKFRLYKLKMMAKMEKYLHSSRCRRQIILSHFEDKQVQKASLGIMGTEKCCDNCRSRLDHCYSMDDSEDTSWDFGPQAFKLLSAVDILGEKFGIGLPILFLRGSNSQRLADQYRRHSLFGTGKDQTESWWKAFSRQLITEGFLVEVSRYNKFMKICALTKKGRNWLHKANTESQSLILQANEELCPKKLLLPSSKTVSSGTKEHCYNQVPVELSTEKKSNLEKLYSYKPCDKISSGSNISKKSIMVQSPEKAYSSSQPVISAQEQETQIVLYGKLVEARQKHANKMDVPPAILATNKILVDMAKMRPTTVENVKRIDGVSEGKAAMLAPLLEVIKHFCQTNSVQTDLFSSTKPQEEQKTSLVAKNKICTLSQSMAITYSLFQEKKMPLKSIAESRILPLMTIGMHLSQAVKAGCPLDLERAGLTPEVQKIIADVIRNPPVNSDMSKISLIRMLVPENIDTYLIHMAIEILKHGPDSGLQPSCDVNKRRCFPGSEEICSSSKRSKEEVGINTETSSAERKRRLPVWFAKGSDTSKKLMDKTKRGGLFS
Method: The activity of the molecules of the present disclosure on the hydrolysis of double-stranded PP-6TR DNA by WRN helicase was tested.
The working solution and buffer were prepared, and the test compound was dissolved in DMSO followed by a4-fold dilution (with a final concentration of 10 μM as the starting concentration). Then, 0.2 μL of the test compound solution was added to a384-well plate, followed by 10 μL of (2×) WRN enzyme solution. The mixture was incubated in the dark for 30 minutes, after which 10 μL of substrate detection solution containing double-stranded DNA was added to initiate the reaction (DNA length: 19 bp, labeled with TAMRA at the 3′ end and BHQ2 at the 5′ end). The mixture was incubated at room temperature for 60 minutes. The inhibitory activity (IC50) against the WRN enzyme was calculated based on the fluorescence change (Ex530/Em590) between the blank group (DMSO) and the compound group.

[3] = tested on: MSS colorectal cancer HT-29 cell line; test: 2D anti-proliferative activity, MSS HT-29 cells (CTG, 5 days); assay type: cell-based; conditions: Homo sapiens, 120 h
Method: The molecules of the present disclosure were tested for their anti-proliferative activity against MSS tumor cells.
as §1, with “MSS HT-29” for “MSI-unstable SW48”, “McCoy's 5A” for “RPMI 1640”

[4] = Liver microsome stability test; assay type: in vitro ADME; conditions: human liver microsomes 0.5 mg/mL, compound 1 μM, NADPH 1 mM, 60 minutes; for microsomal CLint at 1 μM: read-out: Human Clint μL/min/mg Protein
Method: The liver microsome stability test of the compounds is as follows:
The compounds of the present disclosure were subjected to a liver microsome stability test. The compounds to be tested were co-incubated with liver microsomes of different species with or without the addition of NADPH. The final concentration of the compounds to be tested in the test system was 1 μM, the final concentration of NADPH was 1 mM, and the final concentration of liver microsomes was 0.5 mg/mL.

[5] = Homo sapiens, read-out: Average value/ Inhibition rate
[6] = Homo sapiens, read-out: Test 1/ Inhibition rate
[7] = Homo sapiens, read-out: Test 2/ Inhibition rate
[8] = female, CD1, mouse, plasma, IV 2 mg/kg
[9] = female, CD1, mouse, plasma, PO 10 mg/kg

## CCc1c(N2CCN(C(=O)c3ncccc3O)CC2)c(=O)n2nc(-c3cccnc3)nc2n1CC(=O)Nc1ccc(C(F)(F)F)cc1C [Compound A1, reference compound]
[1]; [5]
  inhibition at 38.15 pM: -0.406%
  inhibition at 0.000152588 µM: -9.39%
  inhibition at 0.000610352 µM: -2.32%
  inhibition at 0.00244141 µM: -11.4%
  inhibition at 0.00976562 µM: -4.03%
  inhibition at 0.0390625 µM: -11.9%
  inhibition at 0.15625 µM: 6.4%
  inhibition at 0.625 µM: 97.4%
  inhibition at […]: 101%
  inhibition at 10 µM: 102%
[1]; [6]
  inhibition at 38.15 pM: -2%
  inhibition at 0.000152588 µM: -13.2%
  inhibition at 0.000610352 µM: -2.37%
  inhibition at 0.00244141 µM: -13.8%
  inhibition at 0.00976562 µM: 0.0311%
  inhibition at 0.0390625 µM: -12.6%
  inhibition at 0.15625 µM: -2.14%
  inhibition at 0.625 µM: 97.9%
  inhibition at […]: 99.8%
  inhibition at 10 µM: 101%
[1]; [7]
  inhibition at 38.15 pM: 1.19%
  inhibition at 0.000152588 µM: -5.61%
  inhibition at 0.000610352 µM: -2.27%
  inhibition at 0.00244141 µM: -8.9%
  inhibition at 0.00976562 µM: -8.09%
  inhibition at 0.0390625 µM: -11.1%
  inhibition at 0.15625 µM: 14.9%
  inhibition at 0.625 µM: 96.9%
  inhibition at […]: 101%
  inhibition at 10 µM: 102%
[1]; Homo sapiens, 120 h
  IC50: 261 nM
[2]
  F: 14%

## CCc1c(N2CCN(C(=O)c3ncccc3O)CC2)c(=O)n2nc(C3=CCOCC3)nc2n1CC(=O)NC12CC(C(F)(F)F)(C1)C2 [Compound A2, reference compound]
[1]; Homo sapiens, 120 h
  IC50: 2540 nM
WRN helicase
  IC50: 16 nM

## CCc1c(N2CCN(C(=O)c3ncnc(C)c3O)CC2)c(=O)n2nc(C3=CCOCC3)nc2n1CC(=O)Nc1ccc(C(F)(F)F)cc1SC [Compound H4]
[1]; Homo sapiens, 120 h
  IC50: 2560 nM
WRN helicase
  IC50: 71 nM
[3]
  IC50: > 10000 nM

## CCc1c(N2CCN(C(=O)c3ncnc(C)c3O)CC2)c(=O)n2nc(C3=CCOCC3)nc2n1CC(=O)Nc1ccc2c(c1)NCC2(O)C(F)(F)F (stereo not drawn) [Compound H5]
WRN helicase
  IC50: 295 nM

## CCc1c(N2CCN(C(=O)c3ncnc(C)c3O)CC2)c(=O)n2nc(C3=CCOCC3)nc2n1CC(=O)Nc1ccc2c(C(F)(F)F)c[nH]c2c1 [Compound H6]
WRN helicase
  IC50: 625 nM

## CCc1c(N2CCN(C(=O)c3ncccc3O)CC2)c(=O)n2nc(C3=CCOCC3)nc2n1CC(=O)Nc1ccc(C(F)(F)F)c2c1OCCO2 [Compound H7]
[1]; Homo sapiens, 120 h
  IC50: 1940 nM
WRN helicase
  IC50: 9.5 nM

## CCc1c(N2CCN(C(=O)c3ncnc(C)c3O)CC2)c(=O)n2nc(C3=CCC(OC)CC3)nc2n1CC(=O)Nc1ccc(C(F)(F)F)c2ccsc12 (stereo not drawn) [Compound H12]
[1]; Homo sapiens, 120 h
  IC50: 126 nM
[3]
  IC50: > 10000 nM
[4]
  CLint scaled at 1 μM: 28 mL/min/kg
  microsomal CLint at 1 μM: 22 µL/min/mg

## CCc1c(N2CCN(C(=O)c3ncnc(C)c3O)CC2)c(=O)n2nc(C3=CCOCC3)nc2n1CC(=O)Nc1ccc(Br)c2ccsc12 [Compound H15]
[1]; Homo sapiens, 120 h
  IC50: 101 nM
[3]
  IC50: > 10000 nM
[4]
  CLint scaled at 1 μM: 2.5 mL/min/kg
  microsomal CLint at 1 μM: 2 µL/min/mg
[2]
  F: 35%
[2]; [8]
  clearance: 50.4 mL/min/kg
  half-life: 18 min
  AUC(0-t): 655 ng·h/mL
[2]; female, CD1, mouse, plasma, IV 2 mg/kg, read-out: C0
  C0: 1740 ng/mL
[2]; [9]
  half-life: 114 min
  AUC(0-t): 1050 ng·h/mL
[2]; female, CD1, mouse, plasma, PO 10 mg/kg, read-out: Cmax
  Cmax: 693 ng/mL
[2]; female, CD1, mouse, plasma, PO 10 mg/kg, read-out: Tmax
  Tmax: 15 min

## CCc1c(N2CCN(C(=O)c3ncnc(C)c3O)C[C@@H]2C)c(=O)n2nc(C3=CCOCC3)nc2n1CC(=O)Nc1ccc(C(F)(F)F)c2ccsc12 [Compound H17]
[1]; Homo sapiens, 120 h
  IC50: 123 nM
[3]
  IC50: > 10000 nM

## Cc1ncnc(C(=O)N2CCN(c3c(C4CC4)n(CC(=O)Nc4ccc(C(F)(F)F)c5ccsc45)c4nc(C5=CCOCC5)nn4c3=O)CC2)c1O [Compound H18]
[3]
  IC50: > 10000 nM

## CCc1c(N2CCN(C(=O)c3ncnc(C)c3O)CC2)c(=O)n2nc(C3=CCOCC3)nc2n1CC(=O)Nc1ccc(C(F)(F)F)c2scnc12 [Compound H21]
[1]; Homo sapiens, 120 h
  IC50: 175 nM
[3]
  IC50: > 10000 nM
[4]
  CLint scaled at 1 μM: 6 mL/min/kg
  microsomal CLint at 1 μM: 4.8 µL/min/mg

## CCc1c(N2CCN(C(=O)c3ncnc(C)c3O)CC2)c(=O)n2nc(C3=CCOCC3)nc2n1CC(=O)Nc1ccc2c3c1ncn3CCC2 [Compound H23]
[1]; Homo sapiens, 120 h
  IC50: > 10000 nM
[3]
  IC50: > 10000 nM

## CCc1c(N2CCN(C(=O)c3ncnc(C)c3O)CC2)c(=O)n2nc(C3=CCOCC3)nc2n1CC(=O)Nc1ccc2c3c1ccn3CCC2 [Compound H24]
[1]; Homo sapiens, 120 h
  IC50: 474 nM

## CCc1c(N2CCN(C(=O)c3ncnc(C)c3O)CC2)c(=O)n2nc(C3=CCOCC3)nc2n1CC(=O)Nc1ccc(Br)c2ccoc12 [Compound H25]
[1]; Homo sapiens, 120 h
  IC50: 125 nM

## CCc1c(N2CCN(C(=O)c3ncnc(C)c3O)CC2)c(=O)n2nc(C3=CCOCC3)nc2n1CC(=O)Nc1ccc(Cl)c2ccoc12 [Compound H26]
[1]; Homo sapiens, 120 h
  IC50: 137 nM

## CCc1c(N2CC3(CN(C(=O)c4ncnc(C)c4O)C3)C2)c(=O)n2nc(C3=CCOCC3)nc2n1CC(=O)Nc1ccc(C(F)(F)F)cc1Cl [Compound P1]
WRN helicase
  IC50: 3890 nM

## CCc1c(N2CCN(C(=O)c3ncccc3O)CC2)c(=O)n2nc(-c3cccs3)nc2n1CC(=O)Nc1ccc(C(F)(F)F)cc1Cl [Compound P4]
[1]
  IC50: 135 nM
WRN helicase
  IC50: 1.9 nM

## CCc1c(N2CCN(C(=O)c3ncccc3O)CC2)c(=O)n2nc(-c3cncs3)nc2n1CC(=O)Nc1ccc(C(F)(F)F)cc1Cl [Compound P5]
[1]; Homo sapiens, 120 h
  IC50: 192 nM

## CCc1c(N2CCN(C(=O)c3ncccc3O)CC2)c(=O)n2nc(C3=CCS(=O)(=O)CC3)nc2n1CC(=O)Nc1ccc(C(F)(F)F)cc1Cl [Compound P6]
WRN helicase
  IC50: 3.5 nM
